Source: PubChem BioAssay (NCI)
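Results reflect a 48-hour exposure of cells in 96-well plates to compound at five concentrations. GI50 = concentration required for 50% inhibition of growth. TGI: total growth inhibition.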

Tests used:
Assay in all cases: inhibition of tumour cell growth, NCI panel, 48 h
DLD-1 colon = test system: DLD-1 colon
KM20L2 colon = test system: KM20L2 colon
SNB-78 CNS = test system: SNB-78 CNS
DMS 114 small cell lung = test system: DMS 114 small cell lung
HOP-18 NSCLC = test system: HOP-18 NSCLC
NCI-H226 lung = test system: NCI-H226 lung
DMS 273 small cell lung = test system: DMS 273 small cell lung
LXFL 529 NSCLC = test system: LXFL 529 NSCLC
M19-MEL melanoma = test system: M19-MEL melanoma
K-562 leukemia = test system: K-562 leukemia
XF 498 CNS = test system: XF 498 CNS
SK-MEL-28 melanoma = test system: SK-MEL-28 melanoma
U251 CNS = test system: U251 CNS
SW-620 colon = test system: SW-620 colon
UO-31 renal = test system: UO-31 renal
RXF-631 renal = test system: RXF-631 renal

SMILES	TGI (DLD-1 colon) [µM]	TGI (KM20L2 colon) [µM]	TGI (SNB-78 CNS) [µM]	TGI (DMS 114 small cell lung) [µM]	TGI (HOP-18 NSCLC) [µM]	TGI (NCI-H226 lung) [µM]	TGI (DMS 273 small cell lung) [µM]	TGI (LXFL 529 NSCLC) [µM]	TGI (M19-MEL melanoma) [µM]	TGI (K-562 leukemia) [µM]	TGI (XF 498 CNS) [µM]	TGI (SK-MEL-28 melanoma) [µM]	TGI (U251 CNS) [µM]	TGI (SW-620 colon) [µM]	TGI (UO-31 renal) [µM]	GI50 (NCI-H226 lung) [µM]	TGI (RXF-631 renal) [µM]
Cc1c(C(=O)Nc2ccc(Cl)c(C(F)(F)F)c2)oc2cc(O)ccc2/c1=N\NC(N)=S	> 100	> 100	> 100	> 100	> 100	> 100	> 100	> 100	> 100	> 100	> 100	> 100	> 100	> 100	> 100		
CCOC(=O)Cc1nc2nn(Cc3ccccc3)cc2c(=O)[nH]1						> 100				> 100		> 100	> 100	> 100	> 100		
CCC1=NC(N/N=C/c2ccccc2O)=N/C1=C\c1ccccc1O						> 69				> 100		> 100	> 100	> 100	20.4		
CC1=C/C(=N\N(C)C)C(C(O)(C(F)(F)F)C(F)(F)F)C(C)(C)C1 (stereo unspecified)						> 100				> 100		> 100	> 100	> 100	> 100		
Cc1ccc2nc(CN3CCCCC3)cc(=O)n2c1						> 100				> 100		> 100	> 100	> 100	> 100		
COC(=O)C(Cc1ccccc1)C(=O)NC(CNC(=O)OCc1ccccc1)C(=O)OCc1ccccc1 (stereo unspecified)						> 80.2				45		44	> 100	> 100	> 94.4		
COc1ccc2cc(CNCCCN3CCN(CCCNCc4ccc5cc(OC)ccc5c4)CC3)ccc2c1						3.69				0.366		3.09	3.13	0.982	3.14		
O=C(n1[nH]c(=O)n(-c2ccc([N+](=O)[O-])cc2)c1=O)C(Cl)(Cl)Cl						> 75				> 75		> 75	> 75	> 75	> 75		
CO[C@H]1C[C@@H]2CC[C@@H](C)[C@@](O)(O2)C(=O)C(=O)N2CCCC[C@H]2C(=O)O[C@H]([C@H](C)C[C@@H]2CC[C@@H](OC(=O)C(C)(CO)CO)[C@H](OC)C2)CC(=O)[C@H](C)/C=C(\C)[C@@H](O)[C@@H](OC)C(=O)[C@H](C)C[C@H](C)/C=C/C=C/C=C/1C						22.1				> 100		> 100	> 47.4	> 100	> 100	0.0187	
O=C(O)c1ccccc1C(=O)OCC1CCCN2CCCCC12 (stereo unspecified)						> 100				> 100		> 100	> 100	> 100	> 100		
CSC1=N/C(=C\c2ccc(Cl)cc2)C(=O)N1CN1CCOCC1						> 100				> 100		> 100	> 100	> 100	> 100		
C=CCNC(NCC=C)=C(C(Cl)=C(Cl)Cl)[N+](=O)[O-]						> 100				54.3		> 100	> 100	55.7	> 100		
C=C(CO)[C@H]1CC/C(C)=C/CC/C(C)=C/C/C=C(\C)[C@H](O)C1						90.9				> 100		31.2	36	40.1	93		
CN(C)c1cccc(-c2cc(=O)c3cc4c(cc3[nH]2)OCO4)c1	> 100	0.515	> 100			1.32		> 48.4	> 100	> 100	7.24	> 100	3.95	> 100	> 100		> 100
CCOC(=O)C1C(C(C)C)C2(C#N)C(=N)OC1(C)C2(C#N)C#N (stereo unspecified)						> 100				> 100		> 100	> 100	> 100	> 100		
CCN(CC)CCN1CCN=c2c3cc(OC)ccc3n3cnc4ccc1c2c43						5.3				2.68		3.51	2.74	1.82	4.42		
COC(=O)c1cccc(C)c1C1CN=NC12Cc1c(ccc(C)c1C)C2=O (stereo unspecified)						> 100				> 100		> 100	> 100	> 100	> 100		
C#CCOC(=O)C(N)CS (stereo unspecified)						> 100				> 100		> 100	> 100	> 100	> 100		
Cc1cccc(NC(=O)CSc2nnc(Cc3ccccc3)o2)c1	> 100	> 100	> 100	> 100	> 100	> 100	> 100	> 100		> 100		> 100	> 100	> 100	> 100		
CC(=O)CCC(=O)CC(O)(C(F)(F)F)C(F)(F)F						24.7				33.4		39.6	33.2	42.8	27.8		
Nc1ccccc1C(=O)NNC(=O)c1ccccc1N						> 100				> 100		> 100	> 100	> 100	> 100		
CCCCC1(OC(=O)CCC(=O)O)CCC2(CCC(C)C(C/C=C(C)/C=C/C(O)C(C)/C=C/C(=O)O)O2)OC1CC/C(C)=C/C(=O)O (stereo unspecified)	13.8	46.8	7.75	8.56	29.8	6.1	18.2	3.83	7.95	9.99	4.66	5.07	15.6	39.8	8.14		5.7
O=c1[nH]c2nccn2c(Cl)c1Br						89.4				39.1		36	34.4	60.1	> 100		
C1=Cc2nc1c(-c1ccccc1)c1ccc([n-]1)c(-c1ccccc1)c1nc(c(-c3ccccc3)c3ccc([n-]3)c2-c2ccccc2)C=C1.[Zn+2]	> 100	> 100	> 100	> 100		> 100		> 100	> 100	> 100	> 100	> 100	> 100	> 100	> 100		> 100
